Test results published in PubChem BioAssay AID1918940 (Molecular Pharmacology Branch, DTP, NCI, 2023).
pIC50: −log10 of the molar value.

System: NCI-H211 complex spheroid viability
Test: Anticancer human tumor NCI-H211 cell line growth inhibition [LSD1];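 note: luminescent viability read after seven days of drug exposure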;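 for viability, T/C: 100% = DMSO vehicle control viability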
Details: for pIC50: curve of first compound; for viability, T/C: stronger effect = lower value
Procedure, shortened: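 Complex spheroids of tumor cells with HUVEC and human MSCs, exposed to iadademstat combined with other agents. Each agent tested in half-log steps from near clinical Cmax (else 10 microM top), DMSO ≤0.25%.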

[1] = second compound 0.1 µM, first compound 0.00316 µM
[2] = second compound 0.1 µM, first compound 0.01 µM
[3] = second compound 0.1 µM, first compound 0.0316 µM
[4] = second compound 0.1 µM, first compound 0.1 µM
[5] = second compound 0.316 µM, first compound 0.00316 µM
[6] = second compound 0.316 µM, first compound 0.01 µM
[7] = second compound 0.316 µM, first compound 0.0316 µM
[8] = second compound 0.316 µM, first compound 0.1 µM
[9] = second compound 1 µM, first compound 0.00316 µM
[10] = second compound 1 µM, first compound 0.01 µM
[11] = second compound 1 µM, first compound 0.0316 µM
[12] = second compound 1 µM, first compound 0.1 µM
[13] = second compound 3.16 µM, first compound 0.00316 µM
[14] = second compound 3.16 µM, first compound 0.01 µM
[15] = second compound 3.16 µM, first compound 0.0316 µM
[16] = second compound 3.16 µM, first compound 0.1 µM
[17] = second compound 10 µM, first compound 0.00316 µM
[18] = second compound 10 µM, first compound 0.01 µM
[19] = second compound 10 µM, first compound 0.0316 µM
[20] = second compound 10 µM, first compound 0.1 µM

`CC1COCCN1c1cc(-c2ccnn2C)c2ccnc(-c3ccn[nH]3)c2n1` (stereo not given) + NC1CCC(NC2CC2c2ccccc2)CC1 gave a pIC50 (second compound 0.1 µM) greater than 8.50, a pIC50 (second compound 0.316 µM) of 8.45 and a pIC50 (second compound 1 µM) of 8.49. For the same compound, the pIC50 (second compound 3.16 µM) was greater than 8.50, the pIC50 (second compound 10 µM) was greater than 8.50 and the viability, T/C [1] was 47%. The viability, T/C [2] was 15.9%, the viability, T/C [3] was 3.03% and the viability, T/C [4] was 1.88%. For the same compound, the viability, T/C (second compound 0.1 µM, first compound 0.316 µM) was 1.99%, the viability, T/C (second compound 0.1 µM, first compound 1 µM) was 1.97% and the viability, T/C [5] was 54.4%. It also gave a viability, T/C [6] of 12.7%, a viability, T/C [7] of 5.04% and a viability, T/C [8] of 2.3%. It also gave a viability, T/C (second compound 0.316 µM, first compound 0.316 µM) of 1.83%, a viability, T/C (second compound 0.316 µM, first compound 1 µM) of 2.11% and a viability, T/C [9] of 51.1%. The viability, T/C [10] was 14.4%, the viability, T/C [11] was 3.22% and the viability, T/C [12] was 2.14%. The viability, T/C (second compound 1 µM, first compound 0.316 µM) was 1.98%, the viability, T/C (second compound 1 µM, first compound 1 µM) was 2.52% and the viability, T/C [13] was 39.7%. The viability, T/C [14] was 13.1%, the viability, T/C [15] was 2.82% and the viability, T/C [16] was 2.03%. The viability, T/C (second compound 3.16 µM, first compound 0.316 µM) was 1.63%, the viability, T/C (second compound 3.16 µM, first compound 1 µM) was 2.4% and the viability, T/C [17] was 18.2%. It also gave a viability, T/C [18] of 3.8%, a viability, T/C [19] of 1.39% and a viability, T/C [20] of 1%. It also gave a viability, T/C (second compound 10 µM, first compound 0.316 µM) of 0.87% and a viability, T/C (second compound 10 µM, first compound 1 µM) of 1.21%.

With `Cn1ncnc1C1c2n[nH]c(=O)c3cc(F)cc(c23)NC1c1ccc(F)cc1` (stereo not given) + NC1CC1c1ccc(-c2cccc(O)c2)cc1 the pIC50 (second compound 0.1 µM) was 8.73, the pIC50 (second compound 0.316 µM) was 8.78 and the pIC50 (second compound 1 µM) was 8.98. The pIC50 (second compound 3.16 µM) was 8.97, the pIC50 (second compound 10 µM) was 8.99 and the viability, T/C (second compound 0.1 µM, first compound 0.000316 µM) was 64.8%. For the same compound, the viability, T/C (second compound 0.1 µM, first compound 0.001 µM) was 65.8%, the viability, T/C [1] was 36.7% and the viability, T/C [2] was 6.78%. The viability, T/C [3] was 5.16%, the viability, T/C [4] was 5.28% and the viability, T/C (second compound 0.316 µM, first compound 0.000316 µM) was 79.3%. The viability, T/C (second compound 0.316 µM, first compound 0.001 µM) was 66.8%, the viability, T/C [5] was 28.5% and the viability, T/C [6] was 6.02%. The viability, T/C [7] was 5.46%, the viability, T/C [8] was 4.84% and the viability, T/C (second compound 1 µM, first compound 0.000316 µM) was 51.5%. The viability, T/C (second compound 1 µM, first compound 0.001 µM) was 51.6%, the viability, T/C [9] was 23.6% and the viability, T/C [10] was 6.16%. It also gave a viability, T/C [11] of 4.68%, a viability, T/C [12] of 4.9% and a viability, T/C (second compound 3.16 µM, first compound 0.000316 µM) of 71.6%. For the same compound, the viability, T/C (second compound 3.16 µM, first compound 0.001 µM) was 50.8%, the viability, T/C [13] was 26% and the viability, T/C [14] was 6.88%. It also gave a viability, T/C [15] of 5.03%, a viability, T/C [16] of 5.16% and a viability, T/C (second compound 10 µM, first compound 0.000316 µM) of 48.5%. For the same compound, the viability, T/C (second compound 10 µM, first compound 0.001 µM) was 52.2%, the viability, T/C [17] was 19.9% and the viability, T/C [18] was 6.25%. It also gave a viability, T/C [19] of 5.22% and a viability, T/C [20] of 4.95%.

`CCN(c1cc(-c2ccc(CN3CCOCC3)cc2)cc(C(=O)NCc2c(C)cc(C)[nH]c2=O)c1C)C1CCOCC1` + NC1CCC(NC2CC2c2ccccc2)CC1 gave a pIC50 (second compound 0.1 µM) of less than 5.52, a pIC50 (second compound 0.316 µM) of less than 5.52 and a pIC50 (second compound 1 µM) of less than 5.52. The pIC50 (second compound 3.16 µM) was 5.52, the pIC50 (second compound 10 µM) was greater than 8.02 and the viability, T/C (second compound 0.1 µM, first compound 0.00949 µM) was 76%. The viability, T/C (second compound 0.1 µM, first compound 0.03 µM) was 60.9%, the viability, T/C (second compound 0.1 µM, first compound 0.0949 µM) was 66.9% and the viability, T/C (second compound 0.1 µM, first compound 0.3 µM) was 50.1%. It also gave a viability, T/C (second compound 0.1 µM, first compound 0.949 µM) of 56.8%, a viability, T/C (second compound 0.1 µM, first compound 3 µM) of 64.2% and a viability, T/C (second compound 0.316 µM, first compound 0.00949 µM) of 66.3%. The viability, T/C (second compound 0.316 µM, first compound 0.03 µM) was 68.5%, the viability, T/C (second compound 0.316 µM, first compound 0.0949 µM) was 72.2% and the viability, T/C (second compound 0.316 µM, first compound 0.3 µM) was 59.9%. For the same compound, the viability, T/C (second compound 0.316 µM, first compound 0.949 µM) was 55.1%, the viability, T/C (second compound 0.316 µM, first compound 3 µM) was 60% and the viability, T/C (second compound 1 µM, first compound 0.00949 µM) was 60.3%. The viability, T/C (second compound 1 µM, first compound 0.03 µM) was 63.8%, the viability, T/C (second compound 1 µM, first compound 0.0949 µM) was 55.4% and the viability, T/C (second compound 1 µM, first compound 0.3 µM) was 63.7%. For the same compound, the viability, T/C (second compound 1 µM, first compound 0.949 µM) was 58.3%, the viability, T/C (second compound 1 µM, first compound 3 µM) was 59.1% and the viability, T/C (second compound 3.16 µM, first compound 0.00949 µM) was 60%. For the same compound, the viability, T/C (second compound 3.16 µM, first compound 0.03 µM) was 48.4%, the viability, T/C (second compound 3.16 µM, first compound 0.0949 µM) was 54.3% and the viability, T/C (second compound 3.16 µM, first compound 0.3 µM) was 49.9%. It also gave a viability, T/C (second compound 3.16 µM, first compound 0.949 µM) of 48.7%, a viability, T/C (second compound 3.16 µM, first compound 3 µM) of 54.9% and a viability, T/C (second compound 10 µM, first compound 0.00949 µM) of 40.4%. For the same compound, the viability, T/C (second compound 10 µM, first compound 0.03 µM) was 33.3%, the viability, T/C (second compound 10 µM, first compound 0.0949 µM) was 30.8% and the viability, T/C (second compound 10 µM, first compound 0.3 µM) was 26%. For the same compound, the viability, T/C (second compound 10 µM, first compound 0.949 µM) was 21.1% and the viability, T/C (second compound 10 µM, first compound 3 µM) was 23.7%.
